Data set [1] has as its system leukotriene D4 (LTD4)-induced contraction of the guinea pig ileum. Put plainly: Anti-SRS-A activity: inhibition of LTD4-induced contraction of guinea pig ileum. The note with it: 50% inhibition of LTD4-induced contraction (60-70% of maximum contraction), drug added 1 minute before LTD4. From the text:
The present inventors studied the antagonistic action of compound (I)-A against SRS-A using a synthetic LTD4 in the following manner.
The inhibitory effect of the drug on the contractile response (60-70% of maximum contraction) of the ileum of guinea pig (body weight 300-350 g, female and male) to leukotriene D4 (LTD4) was investigated. In Tyrode solution containing atropine (10^-7 M) and mepyramine (10^-6 M), 3×10^-10 or 10^-9 M of LTD4 was repeatedly permitted to act on the guinea pig ileum and after the amplitude of contraction had become constant, a solution of the test drug was added to a final concentration of 10^-9 to 10^-4 M. After 1 minute, the same concentration of LTD4 was further added and the anti-SRS-A activity of the drug was calculated from the change in contraction amplitude by means of the following equation. [formula]
To obtain the IC50 value, the mole concentration of the drug showing a 50% inhibition of the contractile response was determined from plots on a graph.
The drug was used as dissolved in dimethyl sulfoxide. The solvent was used in an amount less than 1% which would not exert any influence on the ileum.

The subject of data set [2] is bronchoconstriction due to leukotriene D4 (LTD4). In words: Inhibition of bronchoconstriction due to intravenous LTD4 in guinea pigs (Konzett-Rossler). The format is in vivo, guinea pig (Hartley strain). The note with it: for % Inhibition, Experiment 1: 2 minutes before LTD4 10 μg/kg i.v.; for % Inhibition, Experiment 1 / % Inhibition, Experiment 2: 30 seconds after LTD4; for % Inhibition, Experiment 2: 30 minutes before LTD4 10 μg/kg i.v.; for minimal effective dose: Cavia porcellus, iv, dose causing statistically significant difference vs control group, significance level <5%; for inhibitory effect upon the bronchoconstriction compared with Control compound-1 (in words): LTD4, i.v. Here is the method: Guinea pigs of Hartley strain, both male and female, with body weights about 400 g were assigned to groups of 6 individuals, and the bronchoconstriction due to LTD4 were measured according to the method of Konzett-Rossler, [Konzett, H. and Rossler, R.: Naunyn-Schmiedebergs Archiv Fur Experimentelle Pathologie und Pharmakologie 195, 71-74 (1940)]. Each guinea pig was fixed in supine position under urethane anesthesia (1.5 g/kg, intraperitoneal) and the trachea was incised and connected to an artificial respiration apparatus, Rodent Respirator Model 680 [Harvard Apparatus Company, U.S.A.] via a cannula. The branch tube of this tracheal cannula was connected to Bronchospasm Transducer Model 7020 [Ugobasil Biological Research Apparatus, Italy]. Under the conditions of 5 to 7 ml of air per stroke, 70 strokes per minute and a lung loading pressure of 10 cmH2 O, the volume of overflowing air was recorded on Rectigraph-8S (Sanei Sokki Ltd., Japan) via a transducer. After administration of gallamine triethiodide (1 mg/kg, i.v.), 10 μ g/kg of histamine.2HCl was intravenously administered to investigate the response of the animal. Then, a solution of LTD4 in physiological saline (10 μg/kg) was intravenously administered and the bronchoconstriction elicited thereby was recorded for 15 minutes. Two minutes before LTD4 loading, compound (I)-A-1 was intravenously administered in a volume of 0.1 ml per 100 g body weight. Compound (I)-A-1 and LTD4 were administered through a cannula inserted into the jugular vein.
The compound (I)-A-1 was used as dissolved in physiological saline containing sodium hydrogen carbonate, and LTD4 was taken from a stock stored in methanol (1 mg/1 ml methanol) at -70° C.
The bronchoconstriction induced by intravenous administration of 10 μg/kg of LTD4 as given 2 minutes after the administration of physiological saline was maximal at the time of 30 seconds after the administration of LTD4 and, since then, was rapidly attenuated to about 50% at the time of 2 minutes but lasted till 15 minutes. Assuming that the response at complete obstruction is 100%, the values at 30 seconds and 15 minutes were 47.4±6.9% (n=6, Mean±S.E.) and 19.4±2.8% (Mean±S.E.), respectively (S.E.: standard error).
Then the present inventors studied the antagonistic action of the compound (I)-B against SRS-A using a synthetic LTD4 in the manner described on the compound (I)-A.
In each case, the bronchoconstriction following intravenous administration of 10 μg/kg of LTD4 at 2 or 30 minutes after the administration of physiological saline reached a maximum 30 seconds after the administration of LTD4, and then decreased to about 50% at 2 minutes after the administration of LTD4. The response continued for 15 minutes after the administration of LTD4. Repeated experiments using 6 animals per group gave mean degrees of maximum bronchoconstriction (30-second values) of 52.2-67.1% and 54.7-70.1%, respectively, as compared with the state of complete obstruction (100%). In experiment 1, the test compounds (I)-B-1, (I)-B-2 and Control compound-1 were each intravenously administered at two minutes before the administration of LTD4 and inhibitory effect on the bronchoconstriction was examined. The minimum effective doses (causing statistically significant differences as compared with the control group; significance level <5%) were 0.313, 0.313 and 5 mg/kg, respectively. The corresponding inhibition percentages were 41, 52 and 56%, respectively. In experiment 2, the test compounds were intravenously administered 30 minutes before the administration of LTD4 and the effect on the above response was examined. The minimum effective doses were 5, 5, and 20 mg/kg, respectively.
The test compounds were intravenously administered 2 minutes before the
intravenous administration of 10 μg/kg of LTD4.
The test compounds were intravenously administered 30 minutes before the
Each value was calculated from the volume (in percentage) of air […]

In data set [3] the test system is antigen-induced bronchoconstriction. In words: Antigen-induced bronchoconstriction in sensitized guinea pigs. The format is in vivo, guinea pig (Hartley strain). The following applies: for % Inhibition: 2 minutes prior to antigen (EA 1 mg/kg i.v.), one minute after antigen; for minimal effective dose: Cavia porcellus, iv, 2 minutes prior to antigen administration, read-out: minimum effective dose; for inhibitory effect on the antigen-induced bronchoconstriction compared with Control compound-1 (in words): i.v., 2 minutes prior to antigen. On the procedure:
According to the method of Orange and Moore [Orange, R. P. and Moore, E. G., Journal of Immunology, 116, 392-397 (1976)], Hartley-strain male guinea pigs weighing about 350 g were sensitized by intraperitoneal administration of 1 ml of an emulsion composed of 0.5 ml of physiological saline containing 1 mg of egg alubumin (EA) and 0.5 ml of Freund's complete adjuvant (Difco, USA). Three weeks after the sensitization, the serum antibody levels in the sensitized guinea pigs were determined by the 3-hour PCA reaction in guinea pigs and those guinea pigs that gave positive results in the PCA reaction with 1,000-fold diluted serum samples therefrom were used as the sensitized aminals. Using the Konzett-Rossler method as mentioned under the above paragraph (i), the bronchoconstriction due to the antigen-antibody reaction was induced by intravenous administration of 1 mg/kg of the antigen EA instead of LTD4, and recorded.
The bronchoconstriction in the control group as induced by antigen administration 2 minutes after the intravenous administration of physiological saline reached a maximum one minute after the intravenous administration of the antigen. Gradual recovery followed and the pretreatment state was almost restored in 15 minutes after the induction. Repeated experiments using 6 animals per group gave mean degrees of maximum bronchoconstriction (one-minute values) of 72.8-83.3% as compared with the state of complete obstruction (100%). The test compounds (I)-B-1, (I)-B-2 and Control compound-1 were each intravenously administered 2 minutes prior to antigen administration and the inhibitory effect on the bronchoconstriction was examined. The minimum effective doses were 5, 5 and 20 mg/kg, respectively, and the corresponding inhibition percentages were 51, 52 and 64%, respectively.
The test compounds were intravenously administered 2 minutes prior to
intravenous administration of the antigen.
Each value was calculated from the volume (in percentage) of air
overflowing from the respiratory tract at the time when the response was
maximal, i.e. one minute after administration of the antigen.

Data set [4] in a line: Acute toxicity in mice. The class given is in vivo, mouse (Jcl:ICR strain). The following applies: 500 mg/kg oral; for Autopsy findings: after 7 days; for symptoms attributable to compound after oral administration: male mice. On the procedure: Five 5-week-old male mice of Jcl:ICR strain, weighing 26.0 to 30.5 g, were used. Compound (I)-A-1 was suspended in a 5% solution of gum arabic and administered orally by gastric gavage at the level of 0.2 ml per 10 grams body weight.
Five 5-week-old male mice of Jcl:ICR strain, weighing 26.0 to 30.5 g, were used. Compound (I)-B-1 or (I)-B-2 was suspended in a 5% solution of gum arabic and administered orally by gastric gavage at the level of 0.2 ml per 10 grams body weight.

The mark [5] stands for this setting: 1.25 mg/kg i.v., **P<0.01 for (I)-B-1 and (I)-B-2.
Where [6] appears, read: 5 mg/kg i.v., P<0.001 for (I)-B-1 and Control compound-1, P<0.01 for (I)-B-2.
The mark [7] stands for this setting: 5 mg/kg i.v., **P<0.01 for (I)-B-1 and (I)-B-2.
[8] abbreviates: 20 mg/kg i.v., P<0.001 for (I)-B-1 and (I)-B-2, P<0.01 for Control compound-1.
The mark [9] stands for this setting: 30 minutes before LTD4, read-out: minimum effective dose, experiment 2.
The mark [10] stands for this setting: two minutes before LTD4, read-out: minimum effective dose, experiment 1.
Where [11] appears, read: 5 mg/kg i.v., p<0.001 for (I)-B-1, p<0.01 for (I)-B-2.

Where two headings read alike, the source gives them in different places.

As a reminder, the IC50 is the concentration that inhibits the measured activity by half. As to `CCCc1c(OCC(O)COc2ccc(-c3nn[nH]n3)cc2Br)ccc(C(C)=O)c1O` (stereo not shown) [Compound (I)-A-2, 2-hydroxy-3-propyl-4-[2-hydroxy-3-[2-bromo-4-(tetrazol-5-yl)phenoxy]propoxy]acetophenone], the IC50 in data set [1] is 19 nM. In other words, the double-digit nanomolar range.

As for `CCCc1c(OCCCOc2ccc(-c3nnn[nH]3)cc2Cl)ccc(C(C)=O)c1O` [Compound (I)-A-3, 1-(4-acetyl-3-hydroxy-2-n-propylphenoxy)-3-[2-chloro-4-(tetrazol-5-yl)phenoxy]propane], in data set [1], half-maximal inhibition (IC50) was put at 70 nM. Against the preceding compound, the IC50 is about 3.7-fold higher.

Broadly, the % Inhibition is how much of the control response was suppressed. For `CCCc1c(OCC(O)COc2ccc(C(=O)O)cc2Cl)ccc(C(C)=O)c1O` (stereo not shown) [Compound (I)-B-1, 4-[3-(4-acetyl-3-hydroxy-2-n-propylphenoxy)-2-hydroxypropoxy]-3-chlorobenzoic acid], the “% Inhibition, Experiment 1” value was found to be 41% in data set [2] (0.313 mg/kg i.v., *P<0.05); 51% in data set [2] (setting [5]); 84% in data set [2] (setting [6]). Also, the results for the “% Inhibition, Experiment 2” value in data set [2] (setting [7]) and in data set [2] (setting [8]) were 42% and 96%, respectively. The figures for the minimal effective dose in data set [2] (setting [9]), in data set [2] (setting [10]) and in data set [3] were 5 mg/kg, 0.313 mg/kg and 5 mg/kg, respectively. Besides, the “inhibitory effect upon the bronchoconstriction compared with Control compound-1 (in words)” value in data set [2] is recorded as “superior to Control compound-1”. Moreover, the “% Inhibition” value amounted to 6% in data set [3] (1.25 mg/kg i.v.); 51% in data set [3] (setting [11]); 75% in data set [3] (20 mg/kg i.v., ***p<0.001). Further, the “inhibitory effect on the antigen-induced bronchoconstriction compared with Control compound-1 (in words)” value in data set [3] is “superior to Control compound-1”. Also, the Autopsy findings result in data set [4] is given as “did not reveal any abnormalities”. Besides, in data set [4], the “symptoms attributable to compound after oral administration” value is given as “no symptoms”.

`CCCc1c(OCCCOc2ccc(C(=O)O)cc2Cl)ccc(C(C)=O)c1O` [Compound (I)-B-2, 4-[3-(4-acetyl-3-hydroxy-2-n-propylphenoxy)propoxy]-3-chlorobenzoic acid]: the “% Inhibition, Experiment 1” value came out at 52% in data set [2] (0.313 mg/kg i.v., *P<0.05); 77% in data set [2] (setting [5]); 79% in data set [2] (setting [6]). The “% Inhibition, Experiment 2” value in data set [2] (1.25 mg/kg i.v.) was 10%; in data set [2] (setting [7]) it was 42%; in data set [2] (setting [8]), 66%. Moreover, the minimal effective dose in data set [2] (setting [9]) was 5 mg/kg; in data set [2] (setting [10]), 0.313 mg/kg; in data set [3] it was 5 mg/kg. In data set [2], the “inhibitory effect upon the bronchoconstriction compared with Control compound-1 (in words)” value was “superior to Control compound-1”. Further, the “% Inhibition” value in data set [3] (1.25 mg/kg i.v.) is reported as 20%; in data set [3] (setting [11]), 52%; in data set [3] (20 mg/kg i.v., ***p<0.001), 88%. For the same compound, the “inhibitory effect on the antigen-induced bronchoconstriction compared with Control compound-1 (in words)” value in data set [3] is recorded as “superior to Control compound-1”. Besides, in data set [4], the Autopsy findings entry was “did not reveal any abnormalities”. The “symptoms attributable to compound after oral administration” value in data set [4] was “no symptoms”.

On to `CCCc1c(OCCCOc2ccc(C(=O)O)c(O)c2)ccc(C(C)=O)c1O` [Control compound-1, reference compound], for which the IC50 in data set [1] turned out to be 420 nM. Further, the “% Inhibition, Experiment 1” value was 14% in data set [2] (setting [5]); 56% in data set [2] (setting [6]); 87% in data set [2] (20 mg/kg i.v., ***P<0.001). Moreover, the “% Inhibition, Experiment 2” value in data set [2] (setting [7]) was determined as 14%; in data set [2] (setting [8]), 35%. In addition, the minimal effective dose worked out at 20 mg/kg in data set [2] (setting [9]), 5 mg/kg in data set [2] (setting [10]) and 20 mg/kg in data set [3]. Moreover, the “% Inhibition” value in data set [3] (1.25 mg/kg i.v.) is given as 12%; in data set [3] (setting [11]), 16%; in data set [3] (20 mg/kg i.v., ***p<0.001), 64%.

In data set [1], `CCCc1c(OCCCOc2cccc(-c3nn[nH]n3)c2)ccc(C(C)=O)c1O` [Control compound-2, reference compound] yielded an IC50 of 680 nM.

(Values after patent US4567201A, “Diphenoxypropane derivatives and compositions of antiasthmatic and antiinflammatory agents thereof” (Takeda Chemical Industries, Ltd., priority 1981, dated 1986).)
